Source: patent US8202893B2, “Cannabinergic lipid ligands” (University of Connecticut, priority 2004, dated 2012)
Read-outs that look alike come from different tables or passages of the source.

Tests used:
[1] = biological target: T1, CB1 cannabinoid receptor (Rattus norvegicus, UniProt P20272); test: CB1 receptor binding, [3H]CP-55,940 displacement; settings: rat forebrain membranes
T1 construct: membranes were prepared from rat forebrain membranes; from tissue; host or cells: rat forebrain
Method: Some inventive analogs were tested for CB2 receptor binding affinity and for CB1 receptor affinity (to determine selectivity). […] The lower the Ki value, the higher the binding affinity. […] For the CB1 receptor binding studies, membranes were prepared from rat forebrain membranes according to the procedure of P. R. Dodd et al, A Rapid Method for Preparing Synaptosomes: Comparison with Alternative Procedures, Brain Res., 107-118 (1981). The binding of the novel analogues to the CB1 cannabinoid receptor was assessed as described in W. A. Devane et al, Determination and Characterization of a Cannabinoid Receptor in a Rat Brain, Mol. Pharmacol., 34, 605-613 (1988) and A. Charalambous et al, 5′-azido Δ^8-THC: A Novel Photoaffinity Label for the Cannabinoid Receptor, J. Med. Chem., 35, 3076-3079 (1992) with the following changes. The above articles are incorporated by reference herein.
Membranes, previously frozen at −80° C., were thawed on ice. To the stirred suspension was added three volumes of TME (25 mM Tris-HCl buffer, 5 mM MgCl2 and 1 mM EDTA) at a pH 7.4. The suspension was incubated at 4° C. for 30 min. At the end of the incubation, the membranes were pelleted and washed three times with TME.
(§1) The treated membranes were subsequently used in the binding assay described below. Approximately 30 μg of membranes were incubated in silanized 96-well microtiter plate with TME containing 0.1% essentially fatty acid-free bovine serum albumin (BSA), 0.8 nM [^3H] CP-55,940, and various concentrations of test materials in a final volume of 200 μL. The assays were incubated for 1 hour at 30° C. and then immediately filtered using Packard Filtermate 196 harvester and Whatman GF/C filterplates and washed with wash buffer (TME) containing 0.5% BSA. Radioactivity was detected using MicroScint 20 scintillation cocktail added directly to the dried filterplates, and the filterplates were counted using a Packard Instruments Top-Count. Nonspecific binding was assessed using 100 nM CP-55,940. Data collected from three independent experiments performed with duplicate determinations was normalized between 100% and 0% specific binding for [^3H] CP-55,940, determined using buffer and 100 nM CP-55,940. The normalized data was analyzed using a 4-parameter nonlinear logistic equation to yield IC50 values.

[2] = biological target: T2, CB2 receptor (Mus musculus, UniProt P47936); test: CB2 receptor binding, [3H]CP-55,940 displacement; settings: mouse spleen membranes
T2 construct: membranes were prepared from frozen mouse spleen; from tissue; host or cells: mouse spleen
T2 sequence (P47936 whole entry): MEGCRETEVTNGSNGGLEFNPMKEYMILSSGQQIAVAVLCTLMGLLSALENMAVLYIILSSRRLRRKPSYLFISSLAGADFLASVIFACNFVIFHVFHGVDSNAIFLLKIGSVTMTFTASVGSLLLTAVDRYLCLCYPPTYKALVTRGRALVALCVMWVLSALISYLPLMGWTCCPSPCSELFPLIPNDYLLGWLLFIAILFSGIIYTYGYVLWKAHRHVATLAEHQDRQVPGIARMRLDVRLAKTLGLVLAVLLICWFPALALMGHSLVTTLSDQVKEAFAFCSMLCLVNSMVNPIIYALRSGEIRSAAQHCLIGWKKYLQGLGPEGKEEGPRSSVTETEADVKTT
Method: as §1
For the CB2 receptor binding studies, membranes were prepared from frozen mouse spleen essentially according to the procedure of P. R. Dodd et al, A Rapid Method for Preparing Synaptosomes: Comparison with Alternative Procedures, Brain Res., 226, 107-118 (1981) which is incorporated by reference herein. Silanized centrifuge tubes were used throughout to minimize receptor loss due to adsorption. The CB2 binding assay was conducted in the same manner as for the CB1 binding assay. The binding affinities (Ki) were also expressed in nanomoles (nM).

[3] = system: anandamide transporter; test: [3H]Anandamide transporter competition assay; type: cell-based; settings: human CCF-STG1 astrocytoma cells, 10 nM [3H]anandamide
Method: Human CCF-STG1 astrocytoma cells (American Type Culture collection) were grown in RPMI1640 culture medium containing 2 mM L-glutamine, 4.5 g/L glucose, 10 mM HEPES, and 1.0 mM sodium pyruvate, 10% FBS, cultures at 37° C. with 5% CO2. For standard competition assays, confluent cells grown in 24-well plates were rinsed and preincubated for 10 min at 37° C. in assay buffer (Hank's Balanced Salt Solution containing 0.1% DMSO, 10 mM HEPES) plus test compounds (at their final concentrations of 0.01-100 μM). After having discarded the preincubation media, the cells were incubated for 4 min in 0.2 ml assay buffer containing 10 nM [^3H] anandamide (137.6 Ci/mmol, New England Nuclear) plus test compounds. Reactions were stopped by removing the incubation media and rinsing the cells three times with 0.5 ml of ice-cold HBSS buffer containing 0.1% fatty acid-free Bovine Serum Albumin (sigma). Radioactive material in Triton X-100 cell extracts was measured by liquid scintillation counting. A minimum of three independent experiments conducted in six replicates was used to define the concentration needed to produce half-maximal inhibition (IC50) for each compound. IC50 values were obtained by nonlinear regression fitting of the data, using the PRIZM software package. Data are expressed as mean±SEM.

[4] = biological target: T3, Mag-lipase (Rattus norvegicus, UniProt Q8R431); test: Inhibition of MAG-lipase: 2-AG metabolism to arachidonic acid; type: biochemical; settings: 30 nmoles compound with 30 nmoles 2-AG, 30 μg enzyme, 300 μL, 20 min
T3 construct: supernatant from final spin in the anandamide amidase preparation; from tissue; host or cells: supernatant (soluble fraction) of the anandamide amidase preparation, rat brain by the cited procedure
T3 sequence (Q8R431 1-303): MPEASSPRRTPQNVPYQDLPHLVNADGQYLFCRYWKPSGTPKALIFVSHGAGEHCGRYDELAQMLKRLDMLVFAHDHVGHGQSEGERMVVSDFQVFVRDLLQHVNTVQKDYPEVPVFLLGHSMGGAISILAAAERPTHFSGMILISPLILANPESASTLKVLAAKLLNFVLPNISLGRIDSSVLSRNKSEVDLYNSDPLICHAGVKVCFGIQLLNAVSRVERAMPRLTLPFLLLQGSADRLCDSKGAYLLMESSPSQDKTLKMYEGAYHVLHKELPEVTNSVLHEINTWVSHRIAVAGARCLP
Method: (§2) All compound solutions were made to a concentration of 10 mM in DMSO. Three tests were performed on each compound: hydrolysis, to determine the stability of the compound in assay conditions without the enzyme present; metabolism, to determine the stability of the compound with the enzyme present; and inhibition of 2-Arachidonoyl glycerol (native substrate) metabolism to arachidonic acid.
(§3) The inhibition of 2-AG metabolism was measured by mixing 30 nmoles of the compound with 30 nmoles 2-AG, and 30 μg enzyme preparation in TME buffer (final volume of 300 μL). Again the reaction mixture was treated in the same manner as described above and the concentrations of 2-AG and AA were calculated using external standards. Percent inhibition was calculated using the following equation: % Inhib.=(AA20-AA0)i/(AA20-AA0)s where (AA20-AA0)i is the amount of arachidonic acid formed over 20 minutes from 2-AG with the inhibitor present and (AA20-AA0)s is the amount of arachidonic acid formed over 20 minutes from 2-AG when the inhibitor is not present. […] The reaction mixtures were treated as described above and the amount of AA formed was calculated. The software package GraphPad Prism was utilized to calculate IC50 and Ki. HPLC Conditions:
(§4) Chromatographic separation was achieved using an Ultrasphere ODS Pre-column (4.6×45 mm) from Beckman. Hardware consisted of a Waters Millennium HPLC system with a 20 μL injection loop. The mobile phase consisted of 8.5% o-phosphoric acid:acetonitrile (3:7), run isocratically at a rate of 1 mL/min and detection at 204 nm. The total run time was 8 minutes with 2-AG eluting at 3.0 minutes and AA at 6.0 minutes.

[5] = biological target: T4, FAAH (fatty acid amide hydrolase) (Rattus norvegicus, UniProt P97612); test: FAAH screening: inhibition of anandamide metabolism to arachidonic acid; type: biochemical; settings: 25 nmoles compound with 25 nmoles AEA, 75 μg enzyme, 250 μL, 15 min
T4 construct: Anandamide Amidase Activity in Rat Brain Microsomes; from tissue; host or cells: rat brain microsomes (by the cited procedure)
T4 sequence (P97612 1-579): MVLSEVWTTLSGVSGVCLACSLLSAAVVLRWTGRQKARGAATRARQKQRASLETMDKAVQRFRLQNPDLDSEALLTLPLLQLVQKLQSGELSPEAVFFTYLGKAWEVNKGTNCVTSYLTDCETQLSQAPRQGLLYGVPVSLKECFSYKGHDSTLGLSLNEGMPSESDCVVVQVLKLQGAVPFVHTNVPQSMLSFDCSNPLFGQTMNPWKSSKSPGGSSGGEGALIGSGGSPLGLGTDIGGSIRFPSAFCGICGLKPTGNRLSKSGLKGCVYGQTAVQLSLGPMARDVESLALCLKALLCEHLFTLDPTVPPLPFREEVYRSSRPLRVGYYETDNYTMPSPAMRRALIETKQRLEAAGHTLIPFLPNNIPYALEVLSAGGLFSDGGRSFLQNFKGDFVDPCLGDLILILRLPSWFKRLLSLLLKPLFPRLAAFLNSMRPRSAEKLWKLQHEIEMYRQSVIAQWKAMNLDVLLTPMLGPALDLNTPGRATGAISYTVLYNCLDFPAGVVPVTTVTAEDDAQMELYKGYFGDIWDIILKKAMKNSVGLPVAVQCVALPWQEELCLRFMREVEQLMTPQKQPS
Method: The FAAH (fatty acid amide hydrolase) enzyme preparation was obtained according to the procedure of Lang and Makriyannis et al High Performance Liquid Chromatographic Determination of Anandamide Amidase Activity in Rat Brain Microsomes, Analytical Biochemistry (238): 40-45, 1996.
as §2, with “anandamide” for “2-Arachidonoyl glycerol”
as §3, with “Again” for “The inhibition of 2-AG metabolism was measured by mixing 30 nmoles of the compound with 30 nmoles 2-AG, and 30 μg enzyme preparation in TME buffer (final volume of 300 μL). Again”, “AEA” for “2-AG”, “Inhib.=(AA15-AA0)i/(AA15-AA0)s” for “Inhib.=(AA20-AA0)i/(AA20-AA0)s”, “(AA15-AA0)c” for “(AA20-AA0)i”, “15” for “20”, “(AA15-AA0)s” for “(AA20-AA0)s”
as §4, with “AEA” for “2-AG”, “2.2” for “3.0”

[6] = with PMSF (second value of cell), read-out: Ki CB1 (nM) (o/w PMSFQ)
[7] = without PMSF (first value of cell), read-out: Ki CB1 (nM) (o/w PMSFQ)
[8] = with PMSF (second value of cell), read-out: Ki CB1 (nM) (o/w PMSF)
[9] = without PMSF (first value of cell), read-out: Ki CB1 (nM) (o/w PMSF)

T1 sequence (P20272 whole entry): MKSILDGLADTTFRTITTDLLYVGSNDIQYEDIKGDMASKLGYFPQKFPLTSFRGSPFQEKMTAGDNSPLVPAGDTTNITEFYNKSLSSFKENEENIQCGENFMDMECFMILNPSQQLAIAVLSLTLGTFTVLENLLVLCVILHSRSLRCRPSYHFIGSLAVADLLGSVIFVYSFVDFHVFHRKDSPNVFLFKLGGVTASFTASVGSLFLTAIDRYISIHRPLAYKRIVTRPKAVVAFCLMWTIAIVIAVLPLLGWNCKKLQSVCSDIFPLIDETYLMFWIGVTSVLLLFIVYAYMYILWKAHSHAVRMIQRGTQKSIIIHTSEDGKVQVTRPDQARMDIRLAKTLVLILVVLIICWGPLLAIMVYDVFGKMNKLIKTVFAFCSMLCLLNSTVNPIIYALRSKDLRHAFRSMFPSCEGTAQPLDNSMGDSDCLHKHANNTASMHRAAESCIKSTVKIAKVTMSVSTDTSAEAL

Compound `CCCCCN(C)C/C=C\C/C=C\C/C=C\C/C=C\CCCCNC(=O)c1ccc(O)cc1` [Compound A26] has a Ki [1, 6] of 2150 nM, a Ki [1, 7] of 4720 nM and a Ki [2] of 2910 nM. The IC50 ([3]; read-out: IC50 AT inhibition) was 5400 nM and the “Mag-Lipase % Inhibition” value [4] was 9.8%.
`CCCCCN(C)C/C=C\C/C=C\C/C=C\C/C=C\CCCCNC(=O)c1ccc(O)cc1` [Compound A27] showed a Ki [1, 6] of 1620 nM, a Ki [1, 7] of 2220 nM and a Ki [2] of 2560 nM. For the same compound, the IC50 ([3]; read-out: IC50 AT inhibition) was 7100 nM and the “Mag-Lipase % Inhibition” value [4] was 4.2%.
`CCCCCC=CCC=CCC=CCC=CCCCCOC(=O)NCC(C)O` (stereo not shown) [Compound B4] gave a Ki [1, 8] of 320 nM, a Ki [1, 9] of 338 nM and a Ki [2] of 254 nM. The IC50 ([3]; read-out: IC50 (AT inhib.)) was 400 nM and the “FAAH % Inhibition” value [5] was 7%.
`CCCCC/C=C\C/C=C\C/C=C\C/C=C\CCCCOC(=O)NC(C)C` [Compound B5] showed a Ki [1, 8] of 343 nM, a Ki [1, 9] of 510 nM and a Ki [2] of 543 nM. The IC50 ([3]; read-out: IC50 (AT inhib.)) was 21900 nM and the “FAAH % Inhibition” value [5] was 4.5%.
With `CCCCC/C=C\C/C=C\C/C=C\C/C=C\CCCCOC(=O)Nc1ccc(O)cc1` [Compound B9] the Ki [1, 8] was 3300 nM, the Ki [1, 9] was 5390 nM and the Ki [2] was 533 nM. For the same compound, the IC50 ([3]; read-out: IC50 (AT inhib.)) was 6600 nM and the “FAAH % Inhibition” value [5] was 27.3%.
With `CCCCC/C=C\C/C=C\C/C=C\C/C=C\CCCCOC(=O)NC1=NCCS1` [Compound B10] the IC50 ([3]; read-out: IC50 (AT inhib.)) was 8600 nM and the “Mag-Lipase % Inhibition” value [4] was 34.0%.
In the case of `CCCCC/C=C\C/C=C\C/C=C\C/C=C\CCCCOC(=O)Nc1cccnc1` [Compound B11], the Ki [1, 8] is reported as 96.4 nM, the Ki [1, 9] is reported as 302 nM and the Ki [2] is reported as 185 nM. It also gave an IC50 ([3]; read-out: IC50 (AT inhib.)) of 16100 nM and an inhibition at 100 µM [4] of 16.8%.
With `CCCCCCCCC=CCCCCCCCCOC(=O)NCC(C)O` (stereo not shown) [Compound B13] the Ki [1, 8] was 2240 nM, the Ki [1, 9] was 4750 nM and the Ki [2] was 2600 nM. For the same compound, the IC50 ([3]; read-out: IC50 (AT inhib.)) was 5920 nM and the “Mag-Lipase % Inhibition” value [4] was 13.1%.
